Data on 14 molecules can be found in ChEMBL document CHEMBL5512632, “Unlocking the potential of 1,4-naphthoquinones: A comprehensive review of their anticancer properties” (Eur J Med Chem, 2024).

Values after ≈ are worked out from the molar mass of the structure shown.

The subject of one test is LOX IMVI. Nature of the test: Antiproliferative activity against human LOX IMVI cells assessed as inhibition of cell growth incubated for 24 to 48 hrs by SRB assay. Format: functional, cell-based.
Test [1] has as its system MCF7. Nature of the test: Antiproliferative activity against human MCF7 cells assessed as inhibition of cell growth incubated for 72 hrs by MTT assay. The test is classed as functional, cell-based. Conditions: MCF7, 72 h. On the technique in general: Tetrazolium assays rely on reduction of a dye to a coloured formazan, in cell work by metabolically active cells.
For another test, the system named is J774.2. Nature of the test: Antiproliferative activity against mouse J774.2 cells assessed as inhibition of cell growth incubated for 72 hrs by MTT assay. The test is classed as functional, cell-based. The conditions noted are these: J774.2, 72 h.
Test [2] can be described thus: Antiproliferative activity against human KB-ChR-8-5-11 cells assessed as inhibition of cell growth incubated for 72 hrs by MTT assay. The test is classed as functional, cell-based. The conditions noted are these: KB-ChR-8-5-11, 72 h.
In another test the test system is Jurkat. Nature of the test: Antiproliferative activity against human Jurkat cells assessed as inhibition of cell growth incubated for 72 hrs by MTT assay. The test is classed as functional, cell-based.
Another test has as its system THP-1. Nature of the test: Antiproliferative activity against human THP-1 cells assessed as inhibition of cell growth incubated for 72 hrs by MTT assay. Format: functional, cell-based. Conditions: THP-1, 72 h.
Test [3] has as its system HCT-116. Nature of the test: Antiproliferative activity against human HCT-116 cells assessed as inhibition of cell growth incubated for 72 hrs by MTT assay. Format: functional, cell-based. Conditions: HCT-116, 72 h.
Test [4] concerns MCF7. Nature of the test: Antiproliferative activity against human MCF7 cells assessed as inhibition of cell growth incubated for 24 hrs by MTT assay. The test is classed as functional, cell-based. Conditions: MCF7, 24 h.
For test [5], the system named is HeLa. Nature of the test: Antiproliferative activity against human HeLa cells assessed as inhibition of cell growth incubated for 24 hrs by MTT assay. Format: functional, cell-based.
Test [6] concerns HepG2. Nature of the test: Antiproliferative activity against human HepG2 cells assessed as inhibition of cell growth incubated for 24 hrs by MTT assay. Format: functional, cell-based. The conditions noted are these: HepG2, 24 h.
The subject of another test is SF-295. Nature of the test: Antiproliferative activity against human SF-295 cells assessed as inhibition of cell growth incubated for 72 hrs by MTT assay. Format: functional, cell-based. Conditions: SF-295, 72 h.
Another test has as its system MDA-MB-435. Nature of the test: Antiproliferative activity against human MDA-MB-435 cells assessed as inhibition of cell growth incubated for 72 hrs by MTT assay. The conditions noted are these: MDA-MB-435, 72 h. The test is classed as functional, cell-based.
The subject of a further test is OVCAR-8. Nature of the test: Antiproliferative activity against human OVCAR-8 cells assessed as inhibition of cell growth incubated for 72 hrs by MTT assay. Format: functional, cell-based. The conditions noted are these: OVCAR-8, 72 h.
The subject of another test is HCT-8. Nature of the test: Antiproliferative activity against human HCT-8 cells assessed as inhibition of cell growth incubated for 72 hrs by MTT assay. Format: functional, cell-based. Conditions: HCT-8, 72 h.
The subject of test [7] is HL-60. Nature of the test: Antiproliferative activity against human HL-60 cells assessed as inhibition of cell growth incubated for 72 hrs by MTT assay. The test is classed as functional, cell-based. Conditions: HL-60, 72 h.
The nature of test [8]: Antiproliferative activity against human NCI-H358M cells assessed as inhibition of cell growth incubated for 72 hrs by MTT assay. Format: functional, cell-based.
The next test has as its system PC-3M. Nature of the test: Antiproliferative activity against human PC-3M cells assessed as inhibition of cell growth incubated for 72 hrs by MTT assay. The test is classed as functional, cell-based.
The next test has as its system HT-29. Nature of the test: Antiproliferative activity against human HT-29 cells assessed as inhibition of cell growth incubated for 72 hrs by MTT assay. The test is classed as functional, cell-based. Conditions: HT-29, 72 h.
The test system of the next test is MOLT-4. Nature of the test: Antiproliferative activity against human MOLT-4 cells assessed as inhibition of cell growth incubated for 72 hrs by MTT assay. The test is classed as functional, cell-based. The conditions noted are these: MOLT-4, 72 h.
Test [9] in a line: Antiproliferative activity against human NCI-H322T cells assessed as inhibition of cell growth incubated for 48 hrs by MTT assay. The test is classed as functional, cell-based.
The subject of the next test is A549. Nature of the test: Antiproliferative activity against human A549 cells assessed as inhibition of cell growth incubated for 48 hrs by MTT assay. The conditions noted are these: A549, 48 h. Format: functional, cell-based.
The subject of test [10] is HepG2. Nature of the test: Antiproliferative activity against human HepG2 cells assessed as inhibition of cell growth incubated for 48 hrs by MTT reagent based colorimetric assay. Format: functional. Conditions: HepG2, 48 h.
For test [11], the system named is HeLa. Nature of the test: Antiproliferative activity against human HeLa cells assessed as inhibition of cell growth incubated for 48 hrs by MTT reagent based colorimetric assay. Format: functional.
Test [12] deals with HL-60. Nature of the test: Antiproliferative activity against human HL-60 cells assessed as inhibition of cell growth incubated for 72 hrs by MTT reagent based spectral analysis. The conditions noted are these: HL-60, 72 h. Format: functional.
The test system of the next test is KB. Nature of the test: Antiproliferative activity against human KB cells assessed as inhibition of cell growth incubated for 72 hrs by MTT assay. Format: functional, cell-based.
Test [13] deals with HepG2. Nature of the test: Antiproliferative activity against human HepG2 cells assessed as inhibition of cell growth incubated for 72 hrs by MTT assay. Format: functional, cell-based. Conditions: HepG2, 72 h.
A further test concerns SiHa. Nature of the test: Antiproliferative activity against human SiHa cells. Format: functional, cell-based.
The test system of another test is NCI-H460. Nature of the test: Antiproliferative activity against human NCI-H460 cells assessed as inhibition of cell growth incubated for 72 hrs by MTT assay. The conditions noted are these: NCI-H460, 72 h. Format: functional, cell-based.
Another test relates to DU-145. Nature of the test: Antiproliferative activity against human DU-145 cells assessed as inhibition of cell growth incubated for 72 hrs by MTT assay. Format: functional, cell-based. The conditions noted are these: DU-145, 72 h.
The test system of another test is HCT-15. Nature of the test: Cytotoxicity against human HCT-15 cells incubated for 48 hrs by MTT assay. The test is classed as functional, cell-based. The conditions noted are these: HCT-15, 48 h.
The next test deals with MDA-MB-231. Nature of the test: Cytotoxicity against human MDA-MB-231 cells incubated for 48 hrs by MTT assay. The conditions noted are these: MDA-MB-231, 48 h. Format: functional, cell-based.
Another test deals with Bel-7402. Nature of the test: Cytotoxicity against human Bel-7402 cells incubated for 48 hrs by MTT assay. Conditions: Bel-7402, 48 h. The test is classed as functional, cell-based.
The subject of test [14] is HCT-116. Nature of the test: Cytotoxicity against human HCT-116 cells incubated for 48 hrs by MTT assay. Format: functional, cell-based. The conditions noted are these: HCT-116, 48 h.
For a further test, the system named is DBTRG-05MG. Nature of the test: Antiproliferative activity against human DBTRG-05MG cells assessed as inhibition of cell growth incubated for 72 hrs by cell counting kit method. The test is classed as functional, cell-based. Conditions: dbtrg-05mg.

The IC50 is the midpoint of a concentration-inhibition curve. In the case of `COc1cc(C2C3=C(Sc4[nH]c(=O)sc42)C(=O)c2ccccc2C3=O)ccc1O` (centres undefined), in the test on LOX IMVI, the IC50 amounted to 0.16 µM.
Take `O=C1C2=C(C(=O)c3ccccc31)C(CCc1ccccc1)c1sc(=O)[nH]c1S2` (centres undefined): the IC50 is 8.94 µM in the test on MCF7 [1]; 9.57 µM with J774.2; 12.8 µM in test [2]; 0.76 µM in the test with Jurkat; 7.94 µM in the test with THP-1; 6.37 µM in the test on HCT-116 [3].
For `O=C1C=C(SCCC(=O)N2CCN(c3ccccc3F)CC2)C(=O)c2ccccc21`, the IC50 is 16.1 µM in the test with MCF7 [4], 13 µM in the test with HeLa [5] and 18.7 µM in the test with HepG2 [6].
With `C[C@H](NC1=CC(=O)c2ccccc2C1=O)C(=O)O`, the IC50 is 4.52 µM in the test with HCT-116 [3]; 2.56 µM in the test on SF-295; 1.99 µM in the test on MDA-MB-435; 9.61 µM with OVCAR-8; 3.38 µM in the test on HCT-8; 4.27 µM in the test with HL-60 [7]. For the same molecule, the IC50 in test [8] worked out at 3.36 µM; with PC-3M it was 6.55 µM.
Regarding `Cc1ccc(Cn2cc(CNC3=CC(=O)c4ccccc4C3=O)nn2)cc1`, the half-maximal inhibitory concentration (IC50) in the test on MCF7 [1] stood at 10.4 µM; in the test on HT-29, 6.8 µM; in the test on MOLT-4, 8.4 µM.
`N#Cc1ccccc1-n1cc(COc2cccc3c2C(=O)C=CC3=O)nn1`: the IC50 in test [9] is 7.94 µM; in the test with A549, 4.67 µM.
As to `O=C1C=C(Nc2cccc(F)c2)C(=O)c2ccccc21`, in the test on A549, the IC50 is 6.15 µM.
Take `COc1cc(C2C3=C(Nc4cc5c(cc42)OCO5)C(=O)c2ccccc2C3=O)cc(OC)c1OC` (centres undefined): the half-maximal inhibitory concentration (IC50) came out at 14.6 µM in the test with HepG2 [10] and 26.8 µM in the test on HeLa [11].
On to `CSc1ccc(-c2c(-c3ccc(SC)cc3)n3c4c(c(-c5ccc(SC)cc5)c3c3ccc(SC)cc23)C(=O)c2ccccc2C4=O)cc1`, for which, in the test with HL-60 [12], the IC50 came to 2.92 µM.
For `O=C1OCC2=C1C(c1ccc(Oc3ccc(F)cc3)cc1)C1=C(N2)C(=O)c2ccccc2C1=O` (centres undefined), the IC50 with KB is 0.6 µM; in the test with HepG2 [13] it was 1.05 µM; in the test on MCF7 [1], 2.12 µM.
Take `O=C(Nc1ccc(S(=O)(=O)c2ccc3[nH]c4c(c3c2)C(=O)c2ccccc2C4=O)cc1)c1cc([N+](=O)[O-])cc([N+](=O)[O-])c1`: the IC50 with SiHa stood at 20 µg/mL (≈ 33.5 µM).
For the molecule `COc1ccc(N(Cc2cn(S(=O)(=O)c3ccc(C)cc3)nn2)C2=CC(=O)c3ccccc3C2=O)cc1`, the IC50 in the test on MCF7 [1] turned out to be 0.58 µM; in the test with Jurkat, 0.31 µM; in the test on HCT-116 [3] it was 0.46 µM; in the test on SF-295, 0.42 µM; in the test on MDA-MB-435, 0.56 µM; in the test with NCI-H460 it was 0.38 µM. Also, the IC50 in the test on OVCAR-8 is 0.85 µM; with DU-145, 0.38 µM.
Consider `C=CC(C)(C)C(OCCCCCCO)c1cc(OC)c2c(c1OC)/C(=N\O)C=C/C2=N\O` (centres undefined), for which the IC50 in the test on HCT-15 is 30.2 µM; in the test with MDA-MB-231, 8.46 µM; with Bel-7402, 6.53 µM; in the test on HCT-116 [14], 23.5 µM.
Regarding SODIUM ORTHOVANAD, in the test on DBTRG-05MG, the IC50 came out at 25 µM.
